According to article PMC4224962 (Nature, 2014):

B1: betacellulin (protein, UniProt P35070 32-111, looked up)
Betacellulin: DGNSTRSPETNGLLCGDPEENCAATTTQSKRKGHFSRCPKQYKHYCIKGRCRFVVAEQTPSCVCDEGYIGARCERVDLFY
B2: heparin binding-EGF (protein, UniProt Q99075 63-148, looked up)
Heparin-binding EGF-like …: DLQEADLDLLRVTLSSKPQALATPNKEEHGKRKKKGKGLGKKRDPCLRKYKDFCIHGECKYVKELRAPSCICHPGYHGERCHGLSL

Columns and labels:
Format in all cases: cell-based, Mus musculus
primary white adipocytes = test: Thermogenic gene expression; conditions: for Ucp1 expression: primary adipocytes treated with the indicated proteins 1 μg/ml for 24 hr, n = 3 (Fig. 2e)
primary adipocytes = test: Cellular oxygen consumption rate; conditions: primary white adipocytes, NE 100 nM, PTHrP or PTH 100 ng/ml, 24 hr, n = 4
primary brown adipocytes = test: Thermogenic gene expression; conditions: peptides 100 ng/ml for 2 hr, RT-qPCR, n = 3 (Extended Data Fig. 3d)
UCP1 protein = UCP1 protein levels by western blotting in primary white and brown adipocytes; conditions: NE 100 nM, PTHrP or PTH 100 ng/ml each, 24 hr

Molecule	O2 consumption, including basal, uncoupled and maximal respiration (primary adipocytes)	UCP1 protein levels (UCP1 protein)	Ucp1 expression (primary white adipocytes; RT-qPCR)	other results
C=CC(=O)Nc1ccc2ncnc(Nc3ccc(OCc4cccc(F)c4)c(Cl)c3)c2c1 [AST-1306]				browning activity present in LLC cell-conditioned medium (primary white adipocytes; AST-1306 1 μM and LLC cell-conditioned medium for 24 hr, primary adipocytes, n = 3 (Fig. 3a)): largely unaffected; Ucp1 mRNA induction by BTC, EREG or HBEGF (primary white adipocytes; AST-1306 1 μM with BTC, EREG or HBEGF 100 ng/ml for 24 hr, primary adipocytes, n = 3 (Extended Data Fig. 3c)): completely blocked Ucp1 mRNA induction
PTH: Synthetic parathyroid hormone 1-34 peptide, purchased from Bachem (SVSEIQLMHNLGKHLNSMERVEWLRKKLQDVHNF; Parathyroid hormone; UniProt P01270 32-65, looked up, fragment)	significantly raised O2 consumption	increased UCP1 protein comparably		thermogenic gene expression (primary white adipocytes; primary white adipocytes, peptides 100 ng/ml for 2 hr, RT-qPCR, n = 3 (Fig. 3b)): stimulated thermogenic gene expression; thermogenic gene expression (primary brown adipocytes): stimulated thermogenic gene expression
epiregulin [EREG]			induced Ucp1 expression	
NC[C@H](O)c1ccc(O)c(O)c1 [NE, norepinephrine]	significantly raised O2 consumption	increased UCP1 protein comparably		
B1			induced Ucp1 expression	
B2			induced Ucp1 expression	
